# What was measured:
# tyrosinase [1] = target: T1, tyrosinase (Mus musculus, UniProt P11344); experiment: Direct effect on tyrosinase catalytic activity in B16 cell extract; format: biochemical; conditions: incubated 1 hour at 37° C., L-dopa
# T1 construct: supernatant (cell extract) containing the cellular components being retained for assay purposes; endogenous in cells; host or cells: B16 melanoma cells
# T1 sequence (P11344 19-533): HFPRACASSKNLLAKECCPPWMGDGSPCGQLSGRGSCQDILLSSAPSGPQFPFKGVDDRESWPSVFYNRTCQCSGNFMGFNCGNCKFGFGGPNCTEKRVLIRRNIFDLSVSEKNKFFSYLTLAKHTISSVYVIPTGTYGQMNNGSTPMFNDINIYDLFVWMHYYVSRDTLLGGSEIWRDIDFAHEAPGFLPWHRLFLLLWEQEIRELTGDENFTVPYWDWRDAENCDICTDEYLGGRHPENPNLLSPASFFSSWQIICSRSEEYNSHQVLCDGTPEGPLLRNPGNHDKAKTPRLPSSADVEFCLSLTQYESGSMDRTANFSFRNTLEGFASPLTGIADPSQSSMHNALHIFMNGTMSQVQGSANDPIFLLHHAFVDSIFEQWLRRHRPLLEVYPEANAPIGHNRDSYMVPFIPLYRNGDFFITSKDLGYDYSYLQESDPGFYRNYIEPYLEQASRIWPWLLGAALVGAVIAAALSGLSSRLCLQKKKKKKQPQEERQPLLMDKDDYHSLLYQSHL
# Description: (§1) The aim was to investigate the impact and mechanisms of action of the test samples on the TYR activity in melanoma cell line B16.
# (§2) B16 melanoma cells were washed with phosphate-buffered saline and collected in a centrifuge tube. After centrifugation, WIP-lysis buffer containing phenyl-methylsulfonyl fluoride (PMSF) was added to the cell pellet to lyse the cells and the solution was left to stand on ice for 30 minutes. The solution was subsequently centrifuged for 10 min, at 12000 g, at 4° C., with the supernatant (cell extract) containing the cellular components being retained for assay purposes.
# The plate was incubated at 37° C. for 1 hour, and then 80 μl L-dopa was added to each well. The absorbance (492 nm) of each well was recorded at 5 minute intervals for 30 minutes at 37° C. using a microplate reader.
# tyrosinase [2] = experiment: Indirect effect on tyrosinase activity, B16 cells cultured with sample for three days; format: cell-based; conditions: B16 cells incubated three days with test compound before extraction
# Description: as §1, §2
# B16 melanoma cells [3] = experiment: Melanin content in B16 melanoma cells; format: cell-based; conditions: different concentrations
# Description: The aim was to investigate the impact of the test samples on melanin content of melanoma cell line B16. […] The method was as set out below: • 1. Harvest the melanoma B16 cells at Log phase and adjust the cell suspension to an appropriate concentration, divide into 24 well plates and allow the cells to adhere to the walls. • 2. […] Add 250 μl WIP lysis buffer and allow to lyse in an ice bath, vortex mixing once every 5 min for 4-5 times. • 4. Centrifuge for 10 min at 12000 rpm at 4° C. Discard the supernatant and dissolve the precipitate with 400 μl 1N NaOH and keep it in a 80° C. water bath for 1 hour. • 5. Use a microplate reader to measure OD value at 405 nm, and calculate the relative content. Results and discussion: The B16 melanoma cells were seeded at a density of 4×10^4 cell per well of 24-well culture plates, incubated at 37° C. under 5% CO2 atmosphere for 24 h. […] The cells were washed with phosphate-buffered saline, collected in centrifuge tube. After centrifugation, cell pellets were disrupted in WIP lysis buffer containing phenylmethylsulfonyl fluoride (PMSF) on ice for 30 min. The solution was centrifuged for 10 min at 12000 g at 4° C., the pellets were dissolved in 1N NaOH by boiling for 1 h at 70° C. The melanin content was assayed at 405 nm in a spectrophotometer.
# B16 melanoma cells [4] = experiment: Cell viability, MTT assay; format: cell-based; conditions: for growth inhibition of B16 melanoma cells (MTT): below the concentration of 200 ppm
# Description: Cell survival was measured using the MTT assay, which is based on the conversion of 3-(4,5-dimethylthiazol-2-yl)-2,5-diphenyltetrazolium bromide to MTT-formazan crystal by mitochondrial enzyme in viable cells. MTT was freshly prepared at 2 mg/ml in phosphate-buffered saline (PBS). […] Aliquots of 20 μl of MTT stock solution were added to the well at different time points throughout the experiment, and the plate was incubated at 37° C. for 4 h in a humidified 5% CO2 incubator. After 4 h, the formazan crystals of these cells were solubilized in 100 μl DMSO by gentle shaking. After 10 min, the amount of formazan was quantified spectrophotometrically using an ELISA plate reader at 540 nm.
# Wistar rats = experiment: Blood glucose of Wistar rats after starch meal; format: in vivo, Wistar rat; conditions: positive control 25 mg/kg
# Description: The reagents and apparatus are set out below: • (1) Mulberry leaf extract of Example 1 • (2) Saline • (3) Miglitol standard reference chemical • (4) 64 Wistar rats • (5) Johnson's One Touch Ultra blood glucose meter and Code 9 blood glucose test strips The method used was as set out below:
# Animals received Morus extract via intraperitoneal injection (15 mg/kg or 30 mg/kg) or intragastrically (25 mg/kg or 50 mg/kg). Miglitol (Glyset®) (25 mg/kg), an α-glucosidase inhibitor approved for type-2 diabetes was used as a positive control. Fasted blood-sugar levels were recorded as a baseline, and blood sugar levels were measured at time intervals 05.hr, 1 hr and 2 hrs after receiving a starch meal. The animals were dosed with Morus extract prior to receiving the starch meal.
Compound,direct effect on tyrosinase activity (tyrosinase [1]),indirect effect on tyrosinase activity (tyrosinase [2]),content of melanin compared to the control (B16 melanoma cells [3]),concentration above which viability of the cell decreased (B16 melanoma cells [4]; B16 melanoma cell),growth inhibition of B16 melanoma cells (MTT) (B16 melanoma cells [4]),Blood glucose 0.5 h after giving starch (Wistar rats),Blood glucose 1 h after giving starch (Wistar rats),Blood glucose 2 h after giving starch (Wistar rats),Fasted Glucose (Wistar rats; baseline)
OC[C@H]1O[C@@H](Oc2ccc(O)cc2)[C@H](O)[C@@H](O)[C@@H]1O [arbutin],reduced the activity of tyrosinase in a dose-dependent manner,no effect on tyrosinase activity,–,–,–,–,–,–,–
"O=C1O[C@H]([C@@H](O)CO)C([O-])=C1OP(=O)([O-])[O-].O=C1O[C@H]([C@@H](O)CO)C([O-])=C1OP(=O)([O-])[O-].[Mg+2].[Mg+2].[Mg+2] [VC-PMG, magnesium L-ascorbyl-2-phosphate]",–,–,decreased significantly in a dose-dependent manner,over 200 ppm,no growth inhibition,–,–,–,–
"OCC1NCC(O)C(O)C1O (stereo not shown) [DNJ, 1-deoxynojirimycin]",no effect on tyrosinase activity,dose-dependent decrease in tyrosinase activity,decreased significantly in a dose-dependent manner,–,no growth inhibition,–,–,–,–
OCCN1C[C@H](O)[C@@H](O)[C@H](O)[C@H]1CO [Miglitol],–,–,–,–,–,2.27 ± 0.71 mmol/L,2.98 ± 0.52 mmol/L,2.69 ± 0.35 mmol/L,3.04 ± 0.74 mmol/L

# From patent publication US11090349B2, “Plant extract obtained from Morus plant leaves, compositions containing same, method of extraction and uses thereof” (Botanic Century (Beijing) Co. Ltd., priority 2009, dated 2021)
